Assay results: ChEMBL document CHEMBL2429768, “Eco-friendly synthesis and antimicrobial activities of substituted-5-(1H-indol-3-yl)methylene)-2,2-dimethyl-1,3-dioxane-4,6-dione derivatives” (2013)
Values after ≈ are worked out from the molar mass of the structure shown.

What was measured:
Format in all cases: functional
[1] = test system: Aspergillus niger; experiment: Antifungal activity against Aspergillus niger at 50 ug/ml after 72 hrs by agar well diffusion method; conditions: read-out: DIZ
[2] = test system: Fusarium oxysporum; experiment: Antifungal activity against Fusarium oxysporum at 500 ug/ml after 72 hrs by agar well diffusion method; conditions: read-out: DIZ
[3] = test system: Fusarium oxysporum; experiment: Antifungal activity against Fusarium oxysporum at 300 ug/ml after 72 hrs by agar well diffusion method; conditions: read-out: DIZ
[4] = test system: Fusarium oxysporum; experiment: Antifungal activity against Fusarium oxysporum at 200 ug/ml after 72 hrs by agar well diffusion method; conditions: read-out: DIZ
[5] = test system: Fusarium oxysporum; experiment: Antifungal activity against Fusarium oxysporum at 100 ug/ml after 72 hrs by agar well diffusion method; conditions: read-out: DIZ
[6] = test system: Fusarium oxysporum; experiment: Antifungal activity against Fusarium oxysporum at 50 ug/ml after 72 hrs by agar well diffusion method; conditions: read-out: DIZ
[7] = test system: Rhizoctonia solani; experiment: Antifungal activity against Rhizoctonia solani at 500 ug/ml after 72 hrs by agar well diffusion method; conditions: read-out: DIZ
[8] = test system: Rhizoctonia solani; experiment: Antifungal activity against Rhizoctonia solani at 300 ug/ml after 72 hrs by agar well diffusion method; conditions: read-out: DIZ
[9] = test system: Rhizoctonia solani; experiment: Antifungal activity against Rhizoctonia solani at 200 ug/ml after 72 hrs by agar well diffusion method; conditions: read-out: DIZ
[10] = test system: Rhizoctonia solani; experiment: Antifungal activity against Rhizoctonia solani at 100 ug/ml after 72 hrs by agar well diffusion method; conditions: read-out: DIZ
[11] = test system: Rhizoctonia solani; experiment: Antifungal activity against Rhizoctonia solani at 50 ug/ml after 72 hrs by agar well diffusion method; conditions: read-out: DIZ
[12] = test system: Bacillus subtilis; experiment: Antibacterial activity against Bacillus subtilis at 500 ug/ml after 24 hrs by agar well diffusion method; conditions: read-out: DIZ
[13] = test system: Bacillus subtilis; experiment: Antibacterial activity against Bacillus subtilis at 300 ug/ml after 24 hrs by agar well diffusion method; conditions: read-out: DIZ
[14] = test system: Bacillus subtilis; experiment: Antibacterial activity against Bacillus subtilis at 200 ug/ml after 24 hrs by agar well diffusion method; conditions: read-out: DIZ
[15] = test system: Bacillus subtilis; experiment: Antibacterial activity against Bacillus subtilis at 100 ug/ml after 24 hrs by agar well diffusion method; conditions: read-out: DIZ
[16] = test system: Bacillus subtilis; experiment: Antibacterial activity against Bacillus subtilis at 50 ug/ml after 24 hrs by agar well diffusion method; conditions: read-out: DIZ
[17] = test system: Staphylococcus aureus; experiment: Antibacterial activity against Staphylococcus aureus ATCC 6538 at 500 ug/ml after 24 hrs by agar well diffusion method; conditions: ATCC 6538, 24 h, read-out: DIZ
[18] = test system: Staphylococcus aureus; experiment: Antibacterial activity against Staphylococcus aureus ATCC 6538 at 300 ug/ml after 24 hrs by agar well diffusion method; conditions: ATCC 6538, 24 h, read-out: DIZ
[19] = test system: Staphylococcus aureus; experiment: Antibacterial activity against Staphylococcus aureus ATCC 6538 at 200 ug/ml after 24 hrs by agar well diffusion method; conditions: ATCC 6538, 24 h, read-out: DIZ
[20] = test system: Staphylococcus aureus; experiment: Antibacterial activity against Staphylococcus aureus ATCC 6538 at 100 ug/ml after 24 hrs by agar well diffusion method; conditions: ATCC 6538, 24 h, read-out: DIZ
[21] = test system: Escherichia coli; experiment: Antibacterial activity against Escherichia coli ATCC 8739 at 300 ug/ml after 24 hrs by agar well diffusion method; conditions: ATCC 8739, 24 h, read-out: DIZ
[22] = test system: Escherichia coli; experiment: Antibacterial activity against Escherichia coli ATCC 8739 at 200 ug/ml after 24 hrs by agar well diffusion method; conditions: ATCC 8739, 24 h, read-out: DIZ
[23] = test system: Escherichia coli; experiment: Antibacterial activity against Escherichia coli ATCC 8739 at 100 ug/ml after 24 hrs by agar well diffusion method; conditions: ATCC 8739, 24 h, read-out: DIZ
[24] = test system: Escherichia coli; experiment: Antibacterial activity against Escherichia coli ATCC 8739 at 50 ug/ml after 24 hrs by agar well diffusion method; conditions: ATCC 8739, 24 h, read-out: DIZ
[25] = test system: Klebsiella pneumoniae; experiment: Antibacterial activity against Klebsiella pneumoniae at 500 ug/ml after 24 hrs by agar well diffusion method; conditions: read-out: DIZ
[26] = test system: Klebsiella pneumoniae; experiment: Antibacterial activity against Klebsiella pneumoniae at 300 ug/ml after 24 hrs by agar well diffusion method; conditions: read-out: DIZ
[27] = test system: Klebsiella pneumoniae; experiment: Antibacterial activity against Klebsiella pneumoniae at 200 ug/ml after 24 hrs by agar well diffusion method; conditions: read-out: DIZ
[28] = test system: Klebsiella pneumoniae; experiment: Antibacterial activity against Klebsiella pneumoniae at 50 ug/ml after 24 hrs by agar well diffusion method; conditions: read-out: DIZ
[29] = test system: Escherichia coli; experiment: Antibacterial activity against Escherichia coli ATCC 8739 at 500 ug/ml after 24 hrs by agar well diffusion method; conditions: ATCC 8739, 24 h, read-out: DIZ
[30] = test system: Klebsiella pneumoniae; experiment: Antibacterial activity against Klebsiella pneumoniae at 100 ug/ml after 24 hrs by agar well diffusion method; conditions: read-out: DIZ
[31] = test system: Staphylococcus aureus; experiment: Antibacterial activity against Staphylococcus aureus ATCC 6538 at 50 ug/ml after 24 hrs by agar well diffusion method; conditions: ATCC 6538, 24 h, read-out: DIZ
[32] = test system: Aspergillus flavus; experiment: Antifungal activity against Aspergillus flavus at 50 ug/ml after 72 hrs by agar well diffusion method; conditions: read-out: DIZ
[33] = test system: Aspergillus flavus; experiment: Antifungal activity against Aspergillus flavus at 100 ug/ml after 72 hrs by agar well diffusion method; conditions: read-out: DIZ
[34] = test system: Aspergillus flavus; experiment: Antifungal activity against Aspergillus flavus after 72 hrs by agar well diffusion method
[35] = test system: Aspergillus niger; experiment: Antifungal activity against Aspergillus niger after 72 hrs by agar well diffusion method
[36] = test system: Fusarium oxysporum; experiment: Antifungal activity against Fusarium oxysporum after 72 hrs by agar well diffusion method
[37] = test system: Rhizoctonia solani; experiment: Antifungal activity against Rhizoctonia solani after 72 hrs by agar well diffusion method
[38] = test system: Bacillus subtilis; experiment: Antibacterial activity against Bacillus subtilis after 24 hrs by agar well diffusion method
[39] = test system: Staphylococcus aureus; experiment: Antibacterial activity against Staphylococcus aureus ATCC 6538 after 24 hrs by agar well diffusion method; conditions: ATCC 6538, 24 h
[40] = test system: Escherichia coli; experiment: Antibacterial activity against Escherichia coli ATCC 8739 after 24 hrs by agar well diffusion method; conditions: ATCC 8739, 24 h
[41] = test system: Klebsiella pneumoniae; experiment: Antibacterial activity against Klebsiella pneumoniae after 24 hrs by agar well diffusion method
[42] = test system: Aspergillus flavus; experiment: Antifungal activity against Aspergillus flavus at 500 ug/ml after 72 hrs by agar well diffusion method; conditions: read-out: DIZ
[43] = test system: Aspergillus flavus; experiment: Antifungal activity against Aspergillus flavus at 300 ug/ml after 72 hrs by agar well diffusion method; conditions: read-out: DIZ
[44] = test system: Aspergillus flavus; experiment: Antifungal activity against Aspergillus flavus at 200 ug/ml after 72 hrs by agar well diffusion method; conditions: read-out: DIZ
[45] = test system: Aspergillus niger; experiment: Antifungal activity against Aspergillus niger at 500 ug/ml after 72 hrs by agar well diffusion method; conditions: read-out: DIZ
[46] = test system: Aspergillus niger; experiment: Antifungal activity against Aspergillus niger at 300 ug/ml after 72 hrs by agar well diffusion method; conditions: read-out: DIZ
[47] = test system: Aspergillus niger; experiment: Antifungal activity against Aspergillus niger at 200 ug/ml after 72 hrs by agar well diffusion method; conditions: read-out: DIZ
[48] = test system: Aspergillus niger; experiment: Antifungal activity against Aspergillus niger at 100 ug/ml after 72 hrs by agar well diffusion method; conditions: read-out: DIZ

MIC [34]: 40 µg/mL (≈ 134 µM) | MIC [35]: 40 µg/mL (≈ 134 µM) | MIC [36]: 35 µg/mL (≈ 117 µM) | MIC [37]: 35 µg/mL (≈ 117 µM) | MIC [38]: 30 µg/mL (≈ 100 µM) | MIC [39]: 25 µg/mL (≈ 83.5 µM) | MIC [40]: 15 µg/mL (≈ 50.1 µM) | MIC [41]: 15 µg/mL (≈ 50.1 µM)
Compound: CCn1cc(C=C2C(=O)OC(C)(C)OC2=O)c2ccccc21
zone of inhibition at 50 µg/mL [1]: 6 mm | zone of inhibition at 500 µg/mL [2]: 29 mm | zone of inhibition at 300 µg/mL [3]: 21 mm | zone of inhibition at 200 µg/mL [4]: 16 mm | zone of inhibition at 100 µg/mL [5]: 12 mm | zone of inhibition at 50 µg/mL [6]: 7 mm | zone of inhibition at 500 µg/mL [7]: 29 mm | zone of inhibition at 300 µg/mL [8]: 21 mm | zone of inhibition at 200 µg/mL [9]: 16 mm | zone of inhibition at 100 µg/mL [10]: 12 mm | zone of inhibition at 50 µg/mL [11]: 7 mm | zone of inhibition at 500 µg/mL [12]: 22 mm | zone of inhibition at 300 µg/mL [13]: 14 mm | zone of inhibition at 200 µg/mL [14]: 11 mm | zone of inhibition at 100 µg/mL [15]: 9 mm | zone of inhibition at 50 µg/mL [16]: 4 mm | zone of inhibition at 500 µg/mL [17]: 25 mm | zone of inhibition at 300 µg/mL [18]: 18 mm | zone of inhibition at 200 µg/mL [19]: 14 mm | zone of inhibition at 100 µg/mL [20]: 10 mm | zone of inhibition at 300 µg/mL [21]: 20 mm | zone of inhibition at 200 µg/mL [22]: 16 mm | zone of inhibition at 100 µg/mL [23]: 13 mm | zone of inhibition at 50 µg/mL [24]: 8 mm | zone of inhibition at 500 µg/mL [25]: 31 mm | zone of inhibition at 300 µg/mL [26]: 23 mm | zone of inhibition at 200 µg/mL [27]: 18 mm | zone of inhibition at 50 µg/mL [28]: 9 mm | zone of inhibition at 500 µg/mL [29]: 30 mm | zone of inhibition at 100 µg/mL [30]: 14 mm | zone of inhibition at 50 µg/mL [31]: 6 mm | zone of inhibition at 50 µg/mL [32]: 4 mm | zone of inhibition at 100 µg/mL [33]: 9 mm | zone of inhibition at 500 µg/mL [42]: 23 mm | zone of inhibition at 300 µg/mL [43]: 15 mm | zone of inhibition at 200 µg/mL [44]: 12 mm | zone of inhibition at 500 µg/mL [45]: 25 mm | zone of inhibition at 300 µg/mL [46]: 18 mm | zone of inhibition at 200 µg/mL [47]: 14 mm | zone of inhibition at 100 µg/mL [48]: 10 mm
